{"source": "patent US20220339257A1", "about": "“METHODS TO INCREASE THE SENSITIVITY AND REVERSING THE RESISTANCE TO DRUGS” (Biomarker Strategies, LLC, priority 2019, published 2022)", "molecules": {"B1": {"name": "interferon-alpha-1 (protein, UniProt P01562 24-189, looked up)", "Interferon alpha-1/13": "CDLPETHSLDNRRTLMLLAQMSRISPSSCLMDRHDFGFPQEEFDGNQFQKAPAISVLHELIQQIFNLFTTKDSSAAWDEDLLDKFCTELYQQLNDLEACVMQEERVGETPLMNADSILAVKKYFRRITLYLTEKKYSPCAWEVVRAEIMRSLSLSTNLQERLRRKE", "notes": "enhancer molecule, cytokine purchased from Sigma"}}, "assay_type_in_all_cases": "cell-based", "key": {"Ca-922 cell line": {"tested_on": "Ca-922 cell line", "assay": "HoPI live cell staining", "parameters": "concentration or dose not given beside the values", "conditions": "24 hours", "from_the_text": "A double stain of Hoechst 33342 and propidium iodide allows for the determination of cell viability with high specificity and low background noise, as compared to trypan blue staining. Hoechst 33342 is a cell permeable blue fluorescent nuclear stain which will stain all cell types. Propidium iodide is a cell impermeable red fluorescent nuclear stain that will only bind to the nuclei of cells with compromised membranes (dead cells). The staining can be performed rapidly on live cell suspensions within 15 minutes. 25 uL of 4× Hoechst 33342 Solution (40 ug/mL) and 25 uL of 4×Propidium Iodide Solution are added to 50 uL of cell suspension. The suspension was gently mixed 10 times and 50 uL was immediately transferred to a microfluidic cell counting chip. A 365 nm LED was used to excite both Hoechst 33342 and propidium iodide. Images of the cells were captured using a 10× objective lens on an Olympus microscope using a Canon EOS 6D camera using an ISO of 800 and an exposure of 2 seconds; both JPEG and RAW images were saved for analysis. The blue channel was used to measure the total number of cells and the red channel was used to measure the number of dead cells. Cell counting was performed automatically by the Image Pro software (Media Cybernetics, Inc).\nMTA and EM effects on apoptosis were measured by Hoechst-Propidium Iodide staining (HoPI). For the assay, cells were seeded in 6-well plates at 400K cells per well, in 2 mL of 10% FBS-containing media and incubated for 24 hours. At 24 hours, a 1 nM to […] range of MTA and/or 1 ng/mL to 1 mg/mL range of EM doses was added and incubated for 24 hours. After 24 hours incubation respective cells' media was collected, added the 1× HBSS wash from the plate in the respective tube. Adherent cells were detached by treating with Accutase for 6 minutes and collected in respective tubes. All samples were centrifuged for 5 minutes at 1200 RPM. The cell pellets were resuspended in PBS and centrifuged again for 5 minutes at 1200 RPM. Cell pellets were resuspended in 200 uL of PBS and mixed properly to get single cell suspension. 50 uL of cell suspension was added into separate tubes having 10 uL of a 2× HOPI solution (20 ug/mL Hoechst 33342 and 20 ug/mL propidium iodide solution) to get a final concentration of Hoechst 33342 and propidium iodide to […]. Make up the volume to 100 uL with 40 uL of PBS. Samples were mixed thoroughly for even cell staining and the microfluidsic chip wells were each filled with 10 uL of sample. Chips were then incubated in the dark for 20 minutes. A 365 nm LED was used to excite both Hoechst 33342 and propidium iodide as they were visualize under a microscope. Cell images were captured using a 10× objective lens on an Olympus microscope using a Canon EOS 6D camera with an ISO of 800 and an exposure of 2 seconds; both JPEG and RAW images were saved for analysis. The blue channel was used to measure the total number of cells and the red channel was used to measure the number of dead cells. For image analysis, a copy of the image was created and converted directly into an 8-bit gray scale image. A threshold was placed on the image to create a binary mask; the threshold level was 20 intensity units out of 255 intensity units. Next, a particle analysis algorithm was applied to the binary mask and a set of cellular regions (between 100 to 800 cellular regions per image) was created. The original image was then split into red, green and blue channels. The area, mean intensity, standard deviation of the mean intensity, minimum intensity, maximum intensity and perimeter were measured for each cellular region in the red channel and also in the blue channel. The green channel was discarded. To discern between live and dead cells, the maximum intensity in the red channel was used with a threshold of 100 intensity units. Double plots were created using the intensity of the blue channel (X-axis) and the intensity of the red channel (Y-axis). […]"}, "[1]": {"tested_on": "panel of cell lines that included NSCLC, HNSCC, melanoma, and CRC", "assay": "WST8 in vitro sensitivity to MTAs with and without EM", "experimental": "Day 1: cells were harvested cells from flask (4 mL accutase for T175 for 3-5 minutes), and spin down for 5 mins at 1200 rpm. The supernatant was poured off, and the pellet gently resuspended in 1 mL media. Countess counts were performed, and the cells were diluted in media (10% FBS). With multi-channel pipette, 2500 cells were seeded in 100 uL of media (10% FBS) in each well of 96 well plate. The cells were let to adhere and grow for 24 hours. Day 2: serial drug dilutions of MTAs+/−EMs at 5× of concentrations (as done above) were performed in media (10% FBS). 20 uL of media form each well of the 96 well plate (80 uL media left in wells) was removed, and 20 uL of appropriate 5× drug dilutions was added to each respective well (for a 1× conc). The cells were incubated with drug for 72 hours in 37C incubator. Day 5: 10 uL of WST-8 reagent was added to each well of the 96 well plate and mixed gently. the plates were incubated up to 4 hours at 37C in dark, and absorbance readings were taken at […] and 600 nm wavelengths at 1, 2, 3 and 4h, until control absorbance levels were 1.5-2.0).\nWe used a panel of cell lines that included NSCLC, HNSCC, melanoma, and CRC. These cell lines are a good model system harboring similar (epi)genetic changes found in patients' tumors. We used the WST8 assay to determine the in vitro sensitivity to various MTAs with and without EM1."}, "[2]": {"tested_on": "clinical sample (WT EGFR tumor, patient who smoked)", "assay": "Immunocytochemistry biomarker staining of a clinical sample", "conditions": "erlotinib+EM2 combination", "experimental": "Cells at the seeding density of 10,000 cells per well were plated in 8 chamber slides in complete RPMI culture medium for overnight. After 24h cells were treated with RPMI media without the serum along with selected dose of erlotinib+EM2 and kept for additional 72 hours in incubation condition set at 37° C. in a humidified atmosphere of 95% air and 5% CO2. The chamber slides were rinsed with PBS before performing ICC staining. An Ambay kit (Catalog #10011A) purchased from Ambay Immune Sensors and Controls, LLC (AISC) (MD, USA) was used to perform ICC staining as per the kit instructions and using poly-HRP from Biogenix (CA, USA) was used to enable signal amplification and detection of specific bound antibody targets. A respective isotype antibody control was be kept for each biomarker. Counterstaining was performed before mounting and analysis."}, "[3]": {"tested_on": "H1975 (EGFR-double mutant line)", "assay": "MTT cell survival assay", "conditions": "EM2 10 ng/ml combined with erlotinib; Erl-resistant H1975; 72 hours", "experimental": "(§1) Cells (10^4 cells/well) were grown in 96-well plates and exposed for 72 hours to different doses of erlotinib, alone or in combination with EM2. The percentage of cell survival was determined using the 3-(4, 5-dimethylthiazol-2-yl)-2, 5-diphenyltetrazolium bromide (MTT). Single drug alone and vehicle were kept as controls."}, "H1581 (EGFR WT)": {"tested_on": "H1581 (EGFR WT)", "assay": "MTT cell survival assay", "conditions": "EM2 (10, 30, 50 ng/ml) combined with Erlotinib 7 μM; Erl-resistant EGFR WT cells", "experimental": "as §1"}, "[4]": {"tested_on": "HCC827 (EGFR deletion mutant line)", "assay": "MTT cell survival assay", "conditions": "10 ng/ml of EM2 combined with erlotinib, 72 hours", "experimental": "as §1"}}, "data": [{"molecule": "tumor necrosis factor-alpha [EM2]", "values": [{"measurement": "reduction in the number of live cells (HoPI)", "setting": "Ca-922 cell line; osimertinib and TNFa in combination", "value": 67, "unit": "%"}, {"measurement": "reduction in the number of live cells (HoPI)", "setting": "Ca-922 cell line; single agent", "value": 21, "unit": "%"}, {"measurement": "response enhancement (in vitro sensitivity to various MTAs with and without EM, WST8)", "setting": "[1]", "value": "no, minimal and strong response enhancement"}, {"measurement": "cell apoptosis (nuclear staining of Bcl2, nuclear vacuolization)", "setting": "[2]", "value": "promoted cell apoptosis"}, {"measurement": "cell survival (MTT), response to erlotinib", "setting": "[3]", "value": "enhanced response"}, {"measurement": "cell survival (MTT), sensitization to erlotinib", "setting": "H1581 (EGFR WT)", "value": "sensitized to Erl"}, {"measurement": "cell survival (MTT), sensitivity to erlotinib", "setting": "[4]", "value": "increased sensitivity to Erl"}]}, {"molecule": "B1", "values": [{"measurement": "reduction in the number of live cells (HoPI)", "setting": "Ca-922 cell line; GSK458 and IFNa in combination", "value": 26, "unit": "%"}, {"measurement": "reduction in the number of live cells (HoPI)", "setting": "Ca-922 cell line; single agent", "value": 24, "unit": "%"}]}]}
